The test system of assay [1] is Human 435 breast carcinoma cells. Briefly: In vivo targeting of phage expressing an RGD peptide to a breast tumor. The conditions noted are these: for RGD phage as compared to unselected control phage accumulated in the tumor: human breast carcinoma tumors. The arrangement: species or system nude mice. As to the method: Human 435 breast carcinoma cells were inoculated into the mammary fat pad of nude mice. When the tumors attained a diameter of about 1 cm, phage expressing a specific RGD-containing peptide were administered to the tumor bearing mouse. Similar results to those discussed below also were obtained with nude mice bearing tumors formed by implantation of human melanoma C8161 cells or by implantation of mouse B16 melanoma cells.
1 x 10^9 phage expressing the RGD-containing peptide, CDCRGDCFC (SEQ ID NO: 57; see, Koivunen et al., supra, 1995) or control (insertless) phage were injected intravenously (iv) into the mice and allowed to circulate for 4 min. The mice then were snap frozen while under anesthesia, and various organs, including tumor, brain and kidney, were removed and the phage present in the organs was quantitated (see Pasqualini and Ruoslahti, supra, 1996).

The subject of assay [2] is brain. The assay can be described thus: In vivo panning of phage peptide display libraries, brain as the selected organ (kidney control). The arrangement: species or system mice. Particulars: phage recovered from brain; for (% PHAGE): % of the 73 clones sequenced; for # PHAGE DISPLAYING SAME A.A. SEQUENCE: second and third rounds of in vivo panning, 73 cloned phage sequenced. As to the method: Phage display libraries were constructed using the fuse 5 vector as described by Koivunen et al. (supra, 1995; see, also, Koivunen et al. Meth. Enzymol. 245:346-369 (1994b), which is incorporated herein by reference). Six libraries encoding peptides designated CX5C (SEQ ID NO: 36), CX6C (SEQ ID NO: 37), CX7C (SEQ ID NO: 38), CX9 (SEQ ID NO: 39), X2CX14CX2 (SEQ ID NO: 40) and X2CX18 (SEQ ID NO: 41) were prepared, where "C" indicates cysteine and "XN" indicates the given number of individually selected amino acids. These libraries can display cyclic peptides when at least two cysteine residues are present in the peptide.
Oligonucleotides were constructed such that "C" was encoded by the codon TGT and "XN" was encoded by NNK, where "N" is equal molar mixtures of A, C, G and T, and where "K" is equal molar mixtures of G and T. Thus, the peptide represented by CX5C (SEQ ID NO: 36) can be represented by an oligonucleotide having the sequence TGT(NNK)5TGT (SEQ ID NO: 42). Oligonucleotides were made double stranded by 3 cycles of PCR amplification, purified and ligated to the nucleic acid encoding the gene III protein in the fuse 5 vector such that, upon expression, the peptide is present as a fusion protein at the N-terminus of the gene III protein.
The vectors were transfected by electroporation into MC1061 cells. Bacteria were cultured for 24 hr in the presence of 20 µg/ml tetracycline, then phage were collected from the supernatant by precipitation twice using polyethylene glycol. Each library contained about 5 x 10^9 to 5 x 10^14 transducing units (TU; individual recombinant phage).
(§1) A mixture of phage libraries containing 1 x 10^14 TU was diluted in 200 µl DMEM and injected into the tail vein of anesthetized BALB\c mice (2 month old females; Jackson Laboratories; Bar Harbor ME); Avertin™ (0.015 ml/g) was used as anesthetic (see Pasqualini and Ruoslahti, supra, 1996). After 1-4 minutes, mice were snap frozen in liquid nitrogen. To recover the phage, carcasses were partially thawed at room temperature for 1 hr, organs were collected and weighed, then were ground in 1 ml DMEM-PI (DMEM containing protease inhibitors (PI); phenylmethylsulfonyl fluoride (PMSF; 1 mM), aprotinin (20 µg/ml), leupeptin (1 µg/ml)).
(§2) Organ samples were washed 3 times with ice cold DMEM-PI containing 1% bovine serum albumin (BSA), then directly incubated with 1 ml K91-kan bacteria for 1 hr. Ten ml NZY medium containing […] tetracycline (NZY/tet) was added to the bacterial culture, the mixture was incubated in a 37°C shaker for 1 hr, then 200 µl aliquots were plated in agar plates containing 40 µg/ml tetracycline (tet/agar).
(§3) Individual colonies containing phage recovered from brain or kidney were grown for 16 hr in 5 ml NZY/tet. The bacterial cultures obtained from the individual colonies were pooled and the phage were purified and re-injected into mice as described above for a second round of in vivo panning. A third round of panning also was performed. Phage DNA was purified from individual bacterial colonies obtained from the second and the third round of in vivo panning and the DNA sequences encoding the peptides expressed by selected phage were determined (see Koivunen et al., supra, 1994b).
Three rounds of in vivo panning in mice were performed. Kidney was used as a control organ. Mice were injected with two different mixtures of phage libraries. The first mixture contained libraries encoding CX9 (SEQ ID NO: 39), CX5C (SEQ ID NO: 36), CX6C (SEQ ID NO: 37) and CX7C (SEQ ID NO: 38) peptides (CX5-7/CX9 mixture; SEQ ID NOS: 36-39). The second mixture contained libraries encoding X2CX14CX2 (SEQ ID NO: 40) and X2CX18 (SEQ ID NO: 41) peptides (X2CX18/X2CX14CX2 mixture; SEQ ID NOS: 40 and 41).
The phage library mixtures were administered to mice via tail vein injection. Phage input was […] of the CX5-7/CX9 (SEQ ID NOS: 36-39) mixture or 1 x 10^14 TU of the X2CX18/X2CX14CX2 (SEQ ID NOS: 40 and 41) mixture. […]

Assay [3] concerns brain. The assay can be described thus: Specificity of brain homing of individually amplified phage (TU in brain vs kidney). The conditions noted are these: individual phage, same input titer. Format: in vivo, mice. The procedure: To determine the specificity of brain homing of the individual motifs identified, phage displaying the predominant motifs were amplified individually, diluted to the same input titer and administered to mice. Following administration, brain and kidney were removed and the number of TU of phage in each organ was determined. […] Specifically, the ratio of selective homing (brain:kidney) was about 8 for CNSRLHLRC (SEQ ID NO: 1) and for CLSSRLDAC (SEQ ID NO: 3), 4 for CENWWGDVC (SEQ ID NO: 2) and 9 for […] (SEQ ID NO: 16).

Assay [4] deals with kidney. The assay can be described thus: In vivo panning of phage peptide display libraries, kidney as the selected organ (brain control). The arrangement: species or system mice. Particulars: phage recovered from kidney; for (% PHAGE): % of the 48 clones sequenced; for # PHAGE DISPLAYING SAME A.A. SEQUENCE: 48 cloned phage sequenced. The procedure: as §1, §2, §3
The same methodology used to isolate phage expressing brain homing peptides was used to isolate phage expressing peptides that home to kidney. In these experiments, brain was used as the control organ. A mixture of the CX5C (SEQ ID NO: 36) and the CX6C (SEQ ID NO: 37) libraries was administered as described above. Homing of phage to the kidney was obtained and an approximately 3x to 7x enrichment of phage homing to kidney was observed following a second round of in vivo panning.
(§4) The amino acid sequences were determined for the inserts in 48 cloned phage that homed to kidney. The peptides expressed by these phage were represented by two predominant sequences, CLPVASC (SEQ ID NO: 21; 46% of the clones sequenced) and CGAREMC (SEQ ID NO: 22; 17% of the clones; see Table 2). In addition, the peptide CKGRSSAC (SEQ ID NO: 23) appeared three times and three other peptides were present twice each.

Assay [5] has as its system kidney. The assay can be described thus: Selective kidney homing of individual phage (kidney vs brain). Format: in vivo, mice. As to the method: as §4
The subject of assay [6] is Human 435 breast carcinoma cells. The assay can be described thus: In vivo panning in mice bearing a human breast carcinoma tumor. The arrangement: species or system nude mice. Particulars: phage recovered from human breast cancer after third round, 14 cloned phage; for # clones: CX3CX3CX3C library. As to the method: Human 435 breast carcinoma cells (Price et al., Cancer Res. 50:717-721 (1990)) were inoculated into the mammary fat pad of nude mice. When the tumors attained a diameter of about 1 cm, either a phage targeting experiment was performed, in which phage expressing a specific peptide were administered to the tumor bearing mouse, or in vivo panning was performed.
The breast tumor bearing mice were injected with 1 x 10^9 phage expressing a library of CX3CX3CX3C (SEQ ID NO: 47) peptides, where X3 indicates three groups of independently selected, random amino acids. The phage were allowed to circulate for 4 min, then the mice were anesthetized, snap frozen in liquid nitrogen while under anesthesia, and the tumor was removed. Phage were isolated from the tumor and subjected to two additional rounds of in vivo panning.
Following the third round of panning, phage were quantitated and the peptide sequences expressed by 14 different cloned phage were determined. The 14 cloned phage expressed 4 different peptides (Table 3).

The test system of assay [7] is B16B15b mouse melanoma cells. Briefly: In vivo panning in mice bearing an implanted mouse melanoma tumor. The arrangement: species or system nude mice. Particulars: phage recovered from B16B15b tumors; 89 cloned phage sequenced. As to the method: Mice bearing a melanoma were produced by implantation of B16B15b mouse melanoma cells, which produce highly vascularized tumors. B16B15b mouse melanoma cells were injected subcutaneously into the mammary fat pad of nude mice (2 months old) and tumors were allowed to grow until the diameter was about 1 cm. In vivo panning was performed as disclosed above. Approximately 1 x 10^12 transducing units of phage expressing the CX5C (SEQ ID NO: 36), CX6C (SEQ ID NO: 37) or […] library were injected, iv, and allowed to circulate for 4 min. Mice then were snap frozen in liquid nitrogen while under anesthesia, tumor tissue and brain (control organ) were removed, and phage were isolated as described above. Three rounds of in vivo panning were performed.
The amino acid sequences were determined for the inserts in 89 cloned phage recovered from the B16B15b tumors. The peptides expressed by these phage were represented by two predominant sequences, CLSGSLSC (SEQ ID NO: 55; 52% of the clones sequenced) and WGTGLC (SEQ ID NO: 52; 25% of the clones; see Table 4).

Assay [8] has as its system melanoma. The assay can be described thus: Immunohistochemical staining (anti-M13) for phage localization in melanoma bearing mice. The conditions noted are these: 1 x 10^9 pfu phage iv, 4 min. Format: in vivo. The procedure: Localization of the phage expressing a tumor homing peptide in the mouse organs was examined by immunohistochemical staining of the tumor and various other tissues. 1 x 10^9 pfu of a control (insertless) phage or a phage expressing the tumor homing peptide, CLSGSLSC ([…]), were injected, iv, into tumor bearing mice and allowed to circulate for 4 min. The mouse then was perfused with DMEM and various organs, including the tumor were removed and fixed in Bouin's solution. Histologic sections were prepared and stained using anti-M13 (phage) antibodies (see Pasqualini and Ruoslahti, supra, 1996).

Values joined by “and” are separate entries in the source; they are usually repeats but may differ in a detail not shown here. Equal values may be shown once. Where no end group is shown, it is not given here.

Consider CDCRGDCFC, for which the “phage detected in the breast tumor as compared to brain and kidney” value in assay [1] (1 x 10^9 phage iv, 4 min) was 2-3 times. Besides, in assay [1] (breast tumors), the “immunohistochemical staining for the phage in the tumor” value is on record as “accumulation of the RGD phage in the blood vessels within the tumor”. For the same substance, the “RGD phage as compared to unselected control phage accumulated in the tumor” value in assay [1] is 80 fold; in assay [1] (listed as RGD phage), “twenty- to eighty-fold”. The “staining for the phage in brain or kidney (control organs)” value in assay [1] (mouse, in vivo) is on record as “no staining”.
Take CENWWGDVC (displayed on phage): in assay [2], the “(% PHAGE)” value is 19% and 19.2%; the “# PHAGE DISPLAYING SAME A.A. SEQUENCE” value amounted to 14. Further, the “ratio of selective homing (brain:kidney)” value in assay [3] is ~4.
With CGAREMC (displayed on phage), in assay [4], the “(% PHAGE)” value was 17% and 16.7%; the “# PHAGE DISPLAYING SAME A.A. SEQUENCE” value is listed as 8. The “ratio of selective kidney:brain homing” value in assay [5] is given as 3.
In the case of “CGEACGGQCALPC [breast tumor homing peptide]”, in assay [6], the “% of total phage sequenced” value is 28.6% and the “# clones” value was found to be 4.
The matching figures for “CGLMCQGACFDVC [peptide from phage recovered from human breast cancer]”: 7.1% and 1.
With “CGRECPRLCQSSC [breast tumor homing peptide]”, the “% of total phage sequenced” value in assay [6] was found to be 42.9%.
For the substance “CKGRSSAC (cysteine pairing not given here; also: displayed on phage)”, the “(% PHAGE)” value in assay [4] was determined as 6.2%. Further, the “ratio of selective kidney:brain homing” value in assay [5] stood at 2.
Take CLPVASC (displayed on phage): in assay [4], the “(% PHAGE)” value was 46% and 45.8%; the “# PHAGE DISPLAYING SAME A.A. SEQUENCE” value is given as 22. Further, the “ratio of selective kidney:brain homing” value in assay [5] is given as 7.
For “CLSGSLSC (not fully specified; cysteine pairing not given here; also: displayed on phage)”, in assay [7], the “# clones” value was 46 and the “% of total phage” value was 52%. In assay [8], the “immunostaining in the liver sinusoids and in spleen” value is on record as “immunostaining was detected”; the “immunostaining in the melanoma” value is “Strong immunostaining”; the “staining in skin or in kidney samples” value is “Essentially no staining”.
Take “CNGRCVSGCAGRC [breast tumor homing peptide]”: in assay [6], the “% of total phage sequenced” value was 21.4% and the “# clones” value is 3.
Turning to CNSRLHLRC (displayed on phage), in assay [2], the “(% PHAGE)” value was 21.9% and the “# PHAGE DISPLAYING SAME A.A. SEQUENCE” value turned out to be 16. Besides, the “ratio of selective homing (brain:kidney)” value in assay [3] is listed as “about 8”.
As for “CSVANSC (cysteine pairing not given here; also: displayed on phage) [peptide from phage recovered from mouse B16B15b melanoma]”, in assay [7], the “# clones” value worked out at 3 and the “% of total phage” value is reported as 3%.
In the case of “WGTGLC (also: displayed on phage) [peptide from phage recovered from mouse B16B15b melanoma]”, in assay [7], the “# clones” value was 22 and the “% of total phage” value stood at 25%.
As to “WRCVLREGPAGGCAWFNRHRL (displayed on phage)”, in assay [2], the “(% PHAGE)” value came out at 13.7% and the “# PHAGE DISPLAYING SAME A.A. SEQUENCE” value was 10. In assay [3], the “ratio of selective homing (brain:kidney)” value is recorded as ~9.

The values are drawn from patent publication EP0987275B1, “Molecules that home to a selected organ or tissue in vivo” (LA JOLLA CANCER RESEARCH FOUNDATION, priority 1995, dated 2008).
